{"source": "patent US20080214656A1", "about": "“Compounds With Diphenoyl-Structure For the Treatment of Immune Diseases” (Neurogenex Co., Ltd., priority 2004, published 2008)", "key": {"[1]": {"system": "CD4+CD25+ regulatory T cells", "assay": "Regulatory T cells in inflamed synovial tissues of CIA mice (FACS, Foxp3 RT-PCR)", "type": "in vivo", "conditions": "20 mg/kg", "source_text": "A correlation between immune regulation by chebulagic acid and regulatory T cells was studied through estimation of an increase/decrease in the number of regulatory T cells in inflamed synovial tissues of the mice with collagen-induced arthritis set in specific groups in Example 3. The knee joints of the limbs with edema were isolated and the surrounding muscle, patellar ligament and patella were removed to obtain the synovial tissues. Each of the synovial tissues was cut into small pieces and incubated twice in a buffer solution at 37° C. for 30 minutes. The buffer solution includes approximately 1 μg/ml collagenase type VI (Sigma, USA), 2% fetal bovine serum (Gibco, USA) and 1 mM EDTA (Sigma, USA). The cells of the isolated synovial tissues were collected and stained with anti-CD4-FITC antibodies (BD Bioscience, USA) and anti-CD25-PE antibodies (BD Bioscience, USA) for fluorescence-activated cell sorter (FACS) analysis (BD Bioscience, USA)."}, "ovalbumin-induced asthma": {"system": "ovalbumin-induced asthma", "assay": "Ovalbumin-induced asthma (OIA), blood IgE level", "type": "in vivo", "conditions": "20 mg/kg i.p. daily for two weeks; Balb/c mice", "experimental": "The immune regulation effects by compounds with a DP structure, preferably a HHDP structure, were estimated through a mice model with ovalbumin-induced asthma (OIA).\nBalb/c mice (Samtaco, Korea) received an intraperitoneal injection of ovalbumin on days 0 and 14, and a solution of 1% ovalbumin was sprayed daily for 20 minutes on days 30, 32 and 34. 20 mg/kg of chebulagic acid was daily injected intraperitoneally for two weeks and bloods were taken to estimate the IgE level to check whether chebulagic acid had efficacy for the mice with the hypersensitive inflammatory disease."}, "skin allograft": {"system": "skin allograft", "assay": "Skin allograft between allogenic mice", "type": "in vivo", "conditions": "20 mg/kg i.p. daily; Balb/c skin grafted to C57B1/6 mouse", "experimental": "To verify that compounds with a DP or HHDP structure are capable of suppressing a transplantation rejection response or a graft-versus-host disease directly in vivo, a skin graft was performed between allogenic mice and then chebulagic acid was treated to estimate the level of suppression against the tissue transplantation (Schwoebel et al., Lab Anim., 39(2), pp. 209-214, 2005).\nSkin tissues including the derma (e.g., approximately 1 cm×approximately 1 cm) from the back of a Balb/c mouse (Samtaco, Korea) and a C57B1/6 mouse (Samtaco, Korea) were isolated while being anesthetized. The skin tissue of the Balb/c mouse was grafted to the back of the C57B1/6 mouse. After the next day of the skin graft, the treatment group and the control group received the daily intraperitoneal injection of 20 mg/kg of chebulagic acid and saline solution, respectively. It was checked whether the grafted skin tissues in the control group and the treatment group were normal or necrotized."}, "[2]": {"system": "collagen-induced arthritis", "assay": "Collagen-induced arthritis (CIA), prophylactic dosing model", "type": "in vivo", "conditions": "10 mg/kg and 20 mg/kg i.p. daily for 3 weeks (day 22 to day 42); DBA/1J mice", "experimental": "(§1) As introduced in an article by Luross and Williams (Immunology, 103(4), pp. 407-416, 2001), a mice model with collagen-induced arthritis (CIA) was used to check whether compounds with a DP or HHDP structure had immune regulatory effects on the chronic inflammation or autoimmune diseases. Male DBA/1J mice, which were 7 to 9 weeks old (SLC Co., Japan), received a subcutaneous injection at the base of tails with approximately 200 μg of bovine type II collagen (CII) in complete Freund's adjuvant (CFA) on days 0 and 21 to induce systemic autoimmune arthritis. […]\nFor the prophylactic dosing model, the control group and the treatment groups respectively received an intraperitoneal injection of saline solution and 10 mg/kg and 20 mg/kg of chebulagic acid daily for 3 weeks (from day 22 to day 42). A degree of arthritis of the mice was measured for every interval of 3 to 4 days from day 22 to day 63. […] Each of the experimental data was expressed as average±standard error with a P* value of less than 0.05.\n(§2) The daily observed arthritis degree of mice was scored for each paw as follows: 0=normal, 1=slight erythema and edema, 2=increased edema with loss of landmarks, 3=severe edema, and 4=severe edema with ankylosis on flexion. […] Each group was then assigned an arthritic score expressed as a mean articular index."}, "[3]": {"system": "collagen-induced arthritis", "assay": "Collagen-induced arthritis (CIA), therapeutic dosing model", "type": "in vivo, mice", "conditions": "20 mg/kg i.p. daily for 3 weeks after arthritis induced (after day 63); within 1 week of therapeutic administration", "experimental": "as §1\nFor the therapeutic doing model, another experiment was performed separately from the above experiment for the prophylactic dosing model. […] During 3 weeks of the treatment period, a degree of arthritis of the mice was measured for every interval of 3 to 4 days. […] Each of the experimental data was expressed as average±standard error with a P* value of less than 0.05.\nas §2"}, "[4]": {"system": "allogenic human leukocytes", "assay": "Mixed leukocyte reaction (MLR), 3H-TdR incorporation", "type": "cell-based", "conditions": "for cpm (3H-TdR incorporation, lymphocyte proliferation) as % of the control group: approximately 50 μM, 5 days incubation", "experimental": "Leukocytes were separated from peripheral blood of two allogenic volunteers, and then suspended with a concentration of approximately 2×10^6 ml^−1 in IMDM supplemented with 10% fetal bovine serum (Gibco, USA). 100 μl of each cell suspension was added and mixed in the each well of 96-well cell culture plate. Afterwards, saline solution was added to a control group, while chebulagic acid or punicalagin, which was diluted with saline solution by 2-fold, was added to treatment groups. Then, the plates were incubated with 5% CO2 at 37° C. for 5 days. 20 μl (approximately 0.5 μCi) of tritiated thymidine (^3H-TdR) was added to each well and incubated for 8 hours.\nAfter the incubation, the leukocytes at each well were adsorbed on a glass fiber filter by a cell harvester (Cambridge, USA) and dried thereafter. Using Scintillation beta counter (Packard, USA), an amount of ^3H-TdR incorporated within the cells was measured in a cpm value. This measurement indicates the level of lymphocyte proliferation, which-is illustrated in FIG. 2.\nIn FIG. 2, CsA represents a group with 1 μM of cyclosporin A used as a positive standard specimen. The concentration of each chebulagic acid and punicalagin was approximately 50 μM. Each of the experimental data was expressed as average±standard error with a p* value of less than 0.05."}, "Foxp3": {"system": "Foxp3", "assay": "Foxp3 expression in stimulated CD4+ T cells by real-time RT-PCR", "type": "cell-based, mice", "conditions": "approximately 50 μM; mouse spleen CD4+ T cells stimulated by anti-CD3 and anti-CD28", "procedure": "CD4^+ T cells were obtained from the spleens of mice, and each group of the CD4^+ Tcells with a concentration of approximately 1×10^6 ml^−1 was suspended in Iscove's modified Dulbecco's medium (IMDM) supplemented with 10% fetal bovine serum (Gibco, USA). The CD4^+ T cells were stimulated by antibodies of anti-CD3 (BD Bioscience, USA) and anti-CD28 (BD Bioscience, USA) and cultured at a cell incubator maintained with 5% CO2 at 37° C. The entire RNA was extracted using RNA-Bee solution (Tel-test, USA) and then reverse transcribed into cDNA through the known method as described by McIntyre et al. (Arthritis Rheum., 48(9), pp. 2652-2659, 2003). Afterwards, the level of mRNA expression was estimated by a real-time quantitative PCR with SYBR Green I (Roche, USA). Each reaction was run in triplicate using SYBR Green PCR Master Mix (Roche, USA) according to the manufacturer's protocol. […] At this time, the PCR was performed sequentially at 94° C. for 30 seconds, at 58° C. for 30 seconds, and at 72° C. for 30 seconds. This cycle of PCR was repeated 40 times."}, "[5]": {"conditions": "synovial tissues of mice with arthritis"}}}
{"smiles": "O=C(O)C[C@@H]1C(=O)O[C@H]2[C@@H]3OC(=O)c4cc(O)c(O)c(O)c4-c4c(cc(O)c(O)c4O)C(=O)OC[C@H]2O[C@@H](OC(=O)c2cc(O)c(O)c(O)c2)[C@@H]3OC(=O)c2cc(O)c(O)c3c2[C@H]1[C@H](O)C(=O)O3", "note": "[chebulagic acid]", "values": [{"measurement": "increase of the CD4+CD25+ T cells compared with the control group", "setting": "[1]; CIA mice", "result": "approximately 100%"}, {"measurement": "increase of the Foxp3 expression compared with the control group", "setting": "[1]; CIA mice", "result": "approximately 550%"}, {"measurement": "CD4+CD25+ T cell ratio (%)", "setting": "[1]; [5]", "result": "5.0 ± 0.4", "unit": "%"}, {"measurement": "Foxp3 expression level", "setting": "[1]; [5]", "result": "3.3 ± 0.3"}, {"measurement": "IgE level in blood as compared with the control group OVA-Control", "setting": "ovalbumin-induced asthma", "result": "approximately 28.5%"}, {"measurement": "success ratio and period of maintaining the tissue graft", "setting": "skin allograft", "result": "increased the success ratio and period of maintaining the tissue graft"}, {"measurement": "onset of collagen-induced arthritis and articular index", "setting": "[2]", "result": "decreased the onset of collagen-induced arthritis and the articular index"}, {"measurement": "arthritis progression", "setting": "[3]", "result": "significant inhibition of the arthritis progression"}, {"measurement": "suppression of lymphocyte proliferation compared with cyclosporin", "setting": "[4]; approximately 50 μM vs 1 μM cyclosporin A", "result": "as effective as 1 μM cyclosporin"}, {"measurement": "cpm (3H-TdR incorporation, lymphocyte proliferation) as % of the control group", "setting": "[4]", "result": "approximately 9.7%"}, {"measurement": "increased amount of Foxp3 expression compared with the control group", "setting": "Foxp3", "result": "approximately 375%"}]}
{"smiles": "O=C(O[C@@H]1O[C@@H]2COC(=O)c3cc(O)c(O)c(O)c3-c3c(cc(O)c(O)c3O)C(=O)O[C@H]([C@H]1O)[C@@H]2O)c1cc(O)c(O)c(O)c1", "note": "[corilagin]", "values": [{"measurement": "increased amount of Foxp3 expression compared with the control group", "setting": "Foxp3", "result": "approximately 350%"}]}
{"smiles": "O=C1OC2C(O)OC3COC(=O)c4cc(O)c(O)c(O)c4-c4c(O)c(O)c5oc(=O)c6c(c(O)c(O)c7oc(=O)c4c5c76)-c4c(cc(O)c(O)c4O)C(=O)OC3C2OC(=O)c2cc(O)c(O)c(O)c2-c2c1cc(O)c(O)c2O", "note": "(centres unmarked) [punicalagin]", "values": [{"measurement": "cpm (3H-TdR incorporation, lymphocyte proliferation) as % of the control group", "setting": "[4]", "result": "approximately 34.1%"}, {"measurement": "increased amount of Foxp3 expression compared with the control group", "setting": "Foxp3", "result": "approximately 737%"}]}
